Where two headings read alike, the source gives them in different places. Bounds are passed on as bounds.

The target of data set [1] is T1, dopamine transporter (DAT) (Rattus norvegicus, UniProt P23977).
T1 construct: Striata were homogenized in 20 ml of ice-cold sucrose solution; from tissue; host or cells: striatal synaptosomes
Briefly: [3H]Dopamine uptake assay, striatal synaptosomes. The format is biochemical.

For data set [2], the target named is T2, serotonin transporter (SERT) (Rattus norvegicus, UniProt P31652).
T2 construct: Rat hippocampus was homogenized in 20 mL cold 0.32 M sucrose; from tissue; host or cells: rat hippocampal synaptosomes
T2 sequence (P31652 whole entry): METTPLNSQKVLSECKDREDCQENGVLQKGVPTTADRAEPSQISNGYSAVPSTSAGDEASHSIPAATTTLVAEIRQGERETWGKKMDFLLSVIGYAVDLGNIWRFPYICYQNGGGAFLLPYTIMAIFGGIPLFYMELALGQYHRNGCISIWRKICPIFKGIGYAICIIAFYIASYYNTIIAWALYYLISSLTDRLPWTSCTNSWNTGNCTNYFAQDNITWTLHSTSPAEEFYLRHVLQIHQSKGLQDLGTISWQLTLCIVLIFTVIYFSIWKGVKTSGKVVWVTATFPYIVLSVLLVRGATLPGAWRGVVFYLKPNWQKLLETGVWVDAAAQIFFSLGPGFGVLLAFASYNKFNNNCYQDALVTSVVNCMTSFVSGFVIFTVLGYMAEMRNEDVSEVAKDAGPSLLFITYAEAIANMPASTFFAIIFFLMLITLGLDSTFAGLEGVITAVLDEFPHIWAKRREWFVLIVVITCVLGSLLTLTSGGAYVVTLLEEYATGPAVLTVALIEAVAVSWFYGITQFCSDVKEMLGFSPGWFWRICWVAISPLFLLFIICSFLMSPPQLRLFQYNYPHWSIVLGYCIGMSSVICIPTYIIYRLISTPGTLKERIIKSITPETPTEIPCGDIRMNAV
Briefly: [3H]5-HT uptake assay, hippocampal synaptosomes. The format is biochemical. To be noted: for IC50: Table 4, earlier studies.

In data set [3] the target is T3, α7* nicotinic receptor (Rattus norvegicus, UniProt Q05941).
T3 construct: Whole rat brain (minus cortex, striatum and cerebellum) was homogenized; from tissue; host or cells: rat whole brain membranes (minus cortex, striatum and cerebellum)
T3 sequence (Q05941 23-502): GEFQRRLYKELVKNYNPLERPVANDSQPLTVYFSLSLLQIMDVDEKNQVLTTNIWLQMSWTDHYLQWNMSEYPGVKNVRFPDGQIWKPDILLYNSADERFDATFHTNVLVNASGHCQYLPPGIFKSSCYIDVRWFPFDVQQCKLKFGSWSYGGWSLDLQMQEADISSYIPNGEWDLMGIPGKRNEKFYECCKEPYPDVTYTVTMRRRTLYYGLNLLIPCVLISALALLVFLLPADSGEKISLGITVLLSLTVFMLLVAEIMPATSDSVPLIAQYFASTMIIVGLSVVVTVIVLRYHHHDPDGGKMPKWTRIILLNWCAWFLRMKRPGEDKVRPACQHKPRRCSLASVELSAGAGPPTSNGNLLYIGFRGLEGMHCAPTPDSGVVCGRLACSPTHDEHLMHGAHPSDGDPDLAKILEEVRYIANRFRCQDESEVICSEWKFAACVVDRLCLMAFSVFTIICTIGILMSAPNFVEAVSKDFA
Briefly: [3H]Methyllycaconitine ([3H]MLA) binding assay.

Data set [4] addresses T4, α4β2* nicotinic receptor (Rattus norvegicus, UniProt P09483+P12390). Briefly: High affinity [3H]nicotine binding assay. Also on record: The pellet containing the striatal membranes was resuspended; from tissue; host or cells: rat striatal membranes.
Data set [5] concerns the target T4, α4β2* nicotinic receptor. Briefly: Nicotine-evoked 86Rb+ efflux assay, thalamic synaptosomes. It is filed as biochemical. Also on record: from tissue. Particulars: read-out: Inhibition of Nicotine-Evoked 86Rb+ Efflux (IC50) α4β2*.
Data set [6] deals with α6β2* nicotinic receptor (Rattus norvegicus, UniProt P12390+P43143). Briefly: Nicotine-evoked [3H]DA overflow from superfused striatal slices. The format is cell-based.
α6β2* nicotinic receptor, sequence (P43143 31-493): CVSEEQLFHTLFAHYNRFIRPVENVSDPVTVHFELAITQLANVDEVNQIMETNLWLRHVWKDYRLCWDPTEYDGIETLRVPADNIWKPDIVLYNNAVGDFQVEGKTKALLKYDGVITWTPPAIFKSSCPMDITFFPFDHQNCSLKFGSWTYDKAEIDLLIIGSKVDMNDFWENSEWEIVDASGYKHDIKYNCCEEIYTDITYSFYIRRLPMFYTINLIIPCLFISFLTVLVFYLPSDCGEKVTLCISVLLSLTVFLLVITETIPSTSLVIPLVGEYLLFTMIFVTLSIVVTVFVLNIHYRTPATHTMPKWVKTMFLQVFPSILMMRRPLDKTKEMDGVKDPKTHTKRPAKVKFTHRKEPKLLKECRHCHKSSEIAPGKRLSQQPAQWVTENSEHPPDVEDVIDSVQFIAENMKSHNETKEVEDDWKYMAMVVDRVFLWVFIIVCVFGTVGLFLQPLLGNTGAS
α6β2* nicotinic receptor, sequence (P12390 25-500): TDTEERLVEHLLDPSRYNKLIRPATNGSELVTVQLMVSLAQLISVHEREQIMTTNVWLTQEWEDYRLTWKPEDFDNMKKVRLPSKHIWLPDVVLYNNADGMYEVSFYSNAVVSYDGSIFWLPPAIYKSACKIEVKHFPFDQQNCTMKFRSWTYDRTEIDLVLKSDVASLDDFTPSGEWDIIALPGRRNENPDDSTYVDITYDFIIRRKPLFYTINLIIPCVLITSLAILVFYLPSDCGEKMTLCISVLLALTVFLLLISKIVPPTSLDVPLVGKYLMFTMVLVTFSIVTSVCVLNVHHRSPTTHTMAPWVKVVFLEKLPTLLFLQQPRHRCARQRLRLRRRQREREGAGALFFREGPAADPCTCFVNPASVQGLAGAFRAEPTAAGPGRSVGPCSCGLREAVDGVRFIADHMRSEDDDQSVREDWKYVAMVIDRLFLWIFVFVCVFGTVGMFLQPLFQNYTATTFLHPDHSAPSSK
Data set [7] has as its target α3β4* nicotinic receptor (Rattus norvegicus, UniProt P04757+P12392). Briefly: Nicotine-evoked [3H]NE overflow from superfused hippocampal slices. To be noted: inhibition of 10 μM S(−)-nicotine. The format is cell-based.
Data set [8] addresses T5, VMAT2 (Rattus norvegicus, UniProt Q01827). Description: biochemical.
In data set [9] the test system is methamphetamine-evoked endogenous DA release from striatal slices. Briefly: Methamphetamine-evoked endogenous DA overflow from superfused striatal slices. The format is cell-based. Particulars: read-out: Inhibition of Methamphetamine Evoked DA Overflow IC50 (Mean).
The target in data set [10] is T5, VMAT2. Briefly: [3H]Dihydrotetrabenazine ([3H]DTBZ) binding assay, synaptic vesicles. Particulars: inhibition of [3H]DTBZ binding Ki, text b58.
[11] abbreviates: Table 1, read-out: [3H]DA Uptake (Ki).
The mark [12] stands for this setting: Table 3, earlier study, read-out: Ki [3H]-Dopamine Uptake Assay.
[13] abbreviates: Table 1, read-out: [3H]5-HT Uptake (Ki) SERT.
[14] abbreviates: Table 1, rat whole brain membranes, read-out: [3H]MLA Binding (Ki) α7*.
[15] abbreviates: Table 1, rat striatal membranes, read-out: [3H]Nicotine Binding (Ki) α4β2*.
The mark [16] stands for this setting: Table 3, earlier study, read-out: Ki [3H]-Nicotine Binding Assay.
[17] abbreviates: Table 1, inhibition of 10 μM S(−)-nicotine, NI: no inhibition, read-out: Inhibition of Nicotine-Evoked [3H]DA Overflow (IC50) α6β2*.
[18] abbreviates: Table 4, earlier studies, read-out: [3H]Nicotine Binding (Ki) α4β2*.
Where [19] appears, read: inhibition of nicotine-evoked [3H]DA overflow IC50.

α3β4* nicotinic receptor, sequence (P04757 26-499): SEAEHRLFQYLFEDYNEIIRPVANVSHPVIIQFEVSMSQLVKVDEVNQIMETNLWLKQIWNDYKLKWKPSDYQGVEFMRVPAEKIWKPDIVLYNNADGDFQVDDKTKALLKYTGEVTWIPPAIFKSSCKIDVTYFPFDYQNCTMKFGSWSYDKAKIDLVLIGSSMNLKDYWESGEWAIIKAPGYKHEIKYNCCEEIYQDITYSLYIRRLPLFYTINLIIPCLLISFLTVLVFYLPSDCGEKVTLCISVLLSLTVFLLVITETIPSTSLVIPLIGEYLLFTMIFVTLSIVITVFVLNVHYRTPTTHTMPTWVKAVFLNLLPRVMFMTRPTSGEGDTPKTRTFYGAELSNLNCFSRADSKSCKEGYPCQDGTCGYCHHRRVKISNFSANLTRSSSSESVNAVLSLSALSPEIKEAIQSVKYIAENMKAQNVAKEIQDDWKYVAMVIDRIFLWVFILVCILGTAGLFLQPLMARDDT
α3β4* nicotinic receptor, sequence (P12392 21-495): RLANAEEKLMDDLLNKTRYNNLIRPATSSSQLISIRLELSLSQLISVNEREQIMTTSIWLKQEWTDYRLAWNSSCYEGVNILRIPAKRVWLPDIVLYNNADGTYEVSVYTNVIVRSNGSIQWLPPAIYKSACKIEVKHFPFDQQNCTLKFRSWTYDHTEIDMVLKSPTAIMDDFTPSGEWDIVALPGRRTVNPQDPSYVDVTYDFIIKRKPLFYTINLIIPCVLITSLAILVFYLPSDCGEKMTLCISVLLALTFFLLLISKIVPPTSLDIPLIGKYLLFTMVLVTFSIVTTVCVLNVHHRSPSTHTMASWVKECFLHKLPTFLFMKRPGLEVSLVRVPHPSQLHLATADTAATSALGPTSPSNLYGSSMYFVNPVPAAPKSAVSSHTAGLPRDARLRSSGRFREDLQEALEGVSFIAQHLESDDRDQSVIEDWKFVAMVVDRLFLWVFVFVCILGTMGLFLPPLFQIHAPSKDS
T1 sequence (P23977 whole entry): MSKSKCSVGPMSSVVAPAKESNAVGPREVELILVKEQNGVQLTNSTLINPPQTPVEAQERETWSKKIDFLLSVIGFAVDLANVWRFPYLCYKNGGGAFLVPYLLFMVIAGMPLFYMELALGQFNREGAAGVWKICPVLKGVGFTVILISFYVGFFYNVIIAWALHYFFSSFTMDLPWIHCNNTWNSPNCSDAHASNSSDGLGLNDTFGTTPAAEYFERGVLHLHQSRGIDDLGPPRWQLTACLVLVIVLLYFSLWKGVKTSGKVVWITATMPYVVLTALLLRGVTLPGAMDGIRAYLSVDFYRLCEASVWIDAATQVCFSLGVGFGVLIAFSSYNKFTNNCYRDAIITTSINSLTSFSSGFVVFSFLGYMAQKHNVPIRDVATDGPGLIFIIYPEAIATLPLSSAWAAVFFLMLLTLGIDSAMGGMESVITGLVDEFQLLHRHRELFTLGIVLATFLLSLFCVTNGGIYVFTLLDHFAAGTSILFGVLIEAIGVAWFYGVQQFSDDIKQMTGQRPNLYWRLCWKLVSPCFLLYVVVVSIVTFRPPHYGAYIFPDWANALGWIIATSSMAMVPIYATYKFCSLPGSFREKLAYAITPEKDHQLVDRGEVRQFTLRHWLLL
T4 sequence (P09483 31-630): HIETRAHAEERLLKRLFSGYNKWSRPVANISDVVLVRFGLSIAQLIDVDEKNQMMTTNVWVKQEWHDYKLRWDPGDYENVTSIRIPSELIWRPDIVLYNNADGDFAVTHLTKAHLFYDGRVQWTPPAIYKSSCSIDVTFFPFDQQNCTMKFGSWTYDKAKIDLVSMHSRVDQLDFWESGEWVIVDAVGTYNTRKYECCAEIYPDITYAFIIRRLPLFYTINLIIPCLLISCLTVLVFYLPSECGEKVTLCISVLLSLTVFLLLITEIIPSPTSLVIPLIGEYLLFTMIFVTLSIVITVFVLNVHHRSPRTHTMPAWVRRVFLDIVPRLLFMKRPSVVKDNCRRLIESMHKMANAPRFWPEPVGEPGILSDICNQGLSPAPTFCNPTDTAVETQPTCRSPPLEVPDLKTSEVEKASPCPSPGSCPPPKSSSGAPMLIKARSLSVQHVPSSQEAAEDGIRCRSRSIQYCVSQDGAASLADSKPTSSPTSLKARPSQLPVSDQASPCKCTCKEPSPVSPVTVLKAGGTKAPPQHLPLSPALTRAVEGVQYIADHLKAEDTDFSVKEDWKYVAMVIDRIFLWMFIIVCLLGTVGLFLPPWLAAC
T4 sequence (P12390 25-500): as the sequence (P12390 25-500) above
T5 sequence (Q01827 whole entry, the tested form may be a part): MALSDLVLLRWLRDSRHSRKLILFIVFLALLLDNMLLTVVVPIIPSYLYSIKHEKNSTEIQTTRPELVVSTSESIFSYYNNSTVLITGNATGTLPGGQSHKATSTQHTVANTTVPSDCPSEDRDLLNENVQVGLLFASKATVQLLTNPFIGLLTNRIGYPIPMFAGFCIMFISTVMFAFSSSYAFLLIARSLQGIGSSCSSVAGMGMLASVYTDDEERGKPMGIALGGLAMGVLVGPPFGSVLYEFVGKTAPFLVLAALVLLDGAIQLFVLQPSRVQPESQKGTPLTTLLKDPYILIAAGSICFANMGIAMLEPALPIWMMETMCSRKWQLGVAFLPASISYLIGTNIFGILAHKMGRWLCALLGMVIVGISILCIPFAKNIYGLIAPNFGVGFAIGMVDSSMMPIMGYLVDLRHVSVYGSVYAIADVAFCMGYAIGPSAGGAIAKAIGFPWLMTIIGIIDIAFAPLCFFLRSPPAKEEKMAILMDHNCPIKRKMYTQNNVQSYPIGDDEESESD

`Cc1ccc(S(=O)(=O)O[C@@H](C[C@H]2CCC[C@@H](CC(=O)c3ccccc3)N2C)c2ccccc2)cc1` [Compound 2, 2S,6R,8S-2-[6-(β-Para-toluenesulfonyloxyphenethyl)-1-methyl-2-piperidyl]-acetophenone]: the Ki in [1] (setting [11]) worked out at 29.1 µM; in data set [1] (setting [12]) it was 39 µM; in data set [2] (setting [13]), 1.67 µM; in [3] (setting [14]), 10.8 µM; in [4] (setting [15]), 0.011 µM; in data set [4] (setting [16]) it was 0.0041 µM. In addition, the IC50 came to 0.002 µM in data set [5] and 1 µM in data set [6] (setting [17]).

For `CN1[C@@H](CC(=O)c2ccccc2)CCC[C@H]1/C=C/c1ccccc1` [Compound 5, N-methyl-2R-phenacyl-6S-trans-styrylpiperidine], the Ki in data set [1] (setting [11]) turned out to be 1.74 µM; in data set [1] (setting [12]), 3 µM; in [2] (setting [13]), 1.86 µM; in [3] (setting [14]), 34.2 µM; in data set [4] (setting [15]), 0.44 µM; in data set [4] (setting [16]) it was 0.13 µM. Moreover, the “inhibition of DAT, potency compared with lobeline” value is 17 fold in data set [1] (Table 1 data) and 10 fold in data set [1] (earlier study (Table 3)). Also, the IC50 in [5] turned out to be 0.3 µM.

Consider `CN1[C@@H](C[C@@H](O)c2ccccc2)CCC[C@H]1/C=C/c1ccccc1` [Compound 6, N-Methyl-2R-(2R-hydroxy-2-phenethyl)-6S-trans-styrylpiperidine], for which the melting point was in the range of 104 to 105 °C. For the same compound, the Ki in data set [1] (read-out: [3H]DA Uptake (Ki)) amounted to 0.86 µM. Moreover, the inhibitory constant (Ki) in data set [2] ([3H]5-HT Uptake (Ki) SERT) stood at 0.04 µM. In addition, the Ki in [2] (inhibition of serotonin uptake Ki) was 0.01 to 0.38 µM. In addition, the affinity in data set [3] corresponds to a Ki of 1.6 µM. In data set [4] (setting [15]), the Ki was determined as 7.6 µM.

Turning to `CN1[C@H](/C=C/c2ccccc2)CCC[C@@H]1/C=C/c1ccccc1` [Compound 14, N-methyl-2,6-cis-di-trans-styrylpiperidine], the melting point was 149 to 150 °C. Moreover, in data set [1] (setting [11]), the Ki came out at 0.58 µM. In addition, the Ki in data set [1] (setting [12]) worked out at 0.8 µM. In data set [2] (setting [13]), the Ki was found to be 8.94 µM. In data set [2], this compound displayed an IC50 of 23.2 µM. Also, the Ki in data set [4] (setting [15]) was > 100 µM. Moreover, in [4] (setting [16]), the Ki was > 100 µM. In [4] (setting [18]), the Ki was found to be 11 µM. The IC50 in data set [7] (Table 1) is 0.01 µM. In data set [7] (Table 4, earlier studies), 0.021 µM corresponded to half-maximal inhibition (IC50). The compound further returned an IC50 in data set [8] of 1.29 µM. For the same compound, in [9] (Rattus norvegicus), the IC50 is 0.43 to 1.25 µM. Further, the IC50 in [9] (superfused rat striatal slices) was found to be 0.7 µM. In data set [5], the IC50 was > 10 µM. Besides, in data set [6], the “selectivity as inhibitor of α6β2* (and α3β4*) subtypes of nAChR compared to inhibition of SERT function” value came to 770 fold, the “selectivity for the α6β2* subtype of nAChR relative to interaction with the MTBZ site on VMAT2” value was 43 fold and the “selectivity for α6β2* (and α3β4*) subtypes of nAChR compared to α4β2* or α7* subtypes” value is > 370 fold. The same compound had an IC50 in data set [6] (Inhibition of Nicotine-Evoked [3H]DA Overflow (IC50) α6β2*) of 0.03 µM. This compound also registered an IC50 in data set [6] (setting [19]) of 0.0003 µM. For the same compound, the “more potent at inhibiting nicotine-evoked [3H]DA and [3H]NE release compared to Compound 15” value in [6] (rat striatal and hippocampal slices, earlier data) is listed as 18 fold.

With `CN1[C@H](/C=C/c2ccccc2)CCC[C@H]1/C=C/c1ccccc1` [Compound 15, N-methyl-2S,6S-trans-di-trans-styrylpiperidine], the Ki in data set [1] (setting [11]) was 0.26 µM; in [2] (setting [13]) it was 0.38 µM; in data set [2] (read-out: inhibition of serotonin uptake Ki), 0.01 to 0.38 µM; in data set [4] (setting [15]) it was 11.9 µM; in [4] (setting [18]) it was 13 µM. Moreover, the IC50 in data set [2] was 1.19 µM; in [7] (Table 1), 0.03 µM; in [8], 5.15 µM; in data set [9] (Rattus norvegicus), > 100 µM; in data set [6] (setting [17]), 1 µM; in data set [6] (Table 4, earlier studies, inhibition of 10 μM S(−)-nicotine, read-out: Inhibition of Nicotine-Evoked [3H]DA Overflow (IC50) α6β2*), 0.54 µM. Besides, the IC50 in data set [6] (setting [19]) was 0.1 to 1 µM. For the same compound, in data set [2] (earlier data), the “more potent inhibiting the function of SERT than Compound 14” value came out at 19 fold. In addition, the “loss of affinity for the nicotinic receptor compared to lobeline” value in [4] (Table 1 data, [3H]nicotine binding) was 1000 fold. Further, the “selectivity as inhibitor of α6β2* (and α3β4*) subtypes of nAChR compared to inhibition of SERT function” value in [6] was 2.2 fold. The “selectivity for the α6β2* subtype of nAChR relative to interaction with the MTBZ site on VMAT2” value in data set [6] came out at 9.5 fold. In addition, the “selectivity for α6β2* (and α3β4*) subtypes of nAChR compared to α4β2* or α7* subtypes” value in data set [6] is > 24 fold.

`CN1[C@@H](/C=C/c2ccccc2)CCC[C@@H]1/C=C/c1ccccc1` [Compound 16, N-methyl-2R,6R-trans-di-trans-styryl piperidine]: the melting point fell in the range of 92 to 93 °C. Moreover, the Ki in [4] (setting [15]) is 12.3 µM. Moreover, the IC50 in data set [9] (Rattus norvegicus) is 0.43 to 1.25 µM. Besides, in data set [9] (superfused rat striatal slices), the IC50 was found to be 0.43 µM.

`CN1[C@H](CCc2ccccc2)CCC[C@H]1CCc1ccccc1` [Compound 18, N-methyl-2S,6S-trans-di-(2-phenethyl)piperidine]: the values for the Ki in data set [1] ([3H]DA Uptake (Ki)), in data set [2] ([3H]5-HT Uptake (Ki) SERT) and in [3] (setting [14]) were 3.69 µM, 2.92 µM and 24.3 µM, respectively. In addition, the IC50 is > 100 µM in data set [9] (Rattus norvegicus) and 0.003 µM in [6] (read-out: inhibition of nicotine-evoked [3H]DA overflow IC50).

In the case of `COc1ccccc1CC[C@H]1CCC[C@@H](CCc2ccccc2OC)N1C` [Compound 37, N-methyl-2,6-cis-di-(o-methoxyphenethyl)piperidine], the Ki in data set [10] was 0.43 to 0.68 µM; in data set [3] (setting [14]), 26 µM; in data set [4] (setting [15]), > 100 µM.

For `COc1cccc(CC[C@H]2CCC[C@@H](CCc3cccc(OC)c3)N2C)c1` [Compound 39, N-methyl-2,6-cis-di-(m-methoxyphenethyl)piperidine], the results for the Ki in [10], in data set [3] (setting [14]) and in data set [4] (setting [15]) were 0.43 to 0.68 µM, 25.5 µM and > 100 µM, respectively.

Source of the values: patent publication US7368443B2, “2,6-disubstituted piperidines and piperazine compounds” (University of Kentucky Research Foundation, priority 1999, dated 2008).
